The star is where a group is joined. ξ: configuration not given here. Lipoyl(6ξ) = O=C(CCCCC1CCSS1)*
What was measured:
BEAS-2B cells = assay: In vitro transfection, Metridia luciferase assay in BEAS-2B cells; format: cell-based, human
Description: (§1) Preparation of IVT-mRNA/pDNA containing binary and ternary complexes: Stock solutions of P704 (5 mg/ml) and synthetic compound (1 mg/ml) were prepared in nuclease-free water (NF water) and stored at 4° C. P704 based binary complexes (P704/IVT-mRNA or P704/pDNA) were prepared by mixing equal volumes of diluted P704 stock solution with IVT-mRNA or pDNA solution at the desired concentration in 2× Tyrode's solution. Ternary complexes were generated via two-steps incubation. Briefly, P704 solutions at certain concentration (defined as weight/weight (w/w) ratio between P704 and nucleic acids) in NF-water were mixed with equal volume of synthetic compound solution at specific concentration (defined as N/P ratio, namely the […] between nitrogen residues in synthetic compound and nucleic acids phosphate groups). After 20 min incubation at room temperature (RT), same volumes of nucleic acid (IVT-mRNA or pDNA) solution in NF-water were added to the above P704/synthetic compound solution and mixed gently by pipetting up and down several times. Subsequently, complexes were incubated for another 20 min at RT prior to further use. IVT-mRNA or pDNA solutions in NF-water were complexed with brPEI (25 kDa) at an optimum N/P ratio, the resulting complexes were served as a control polyplex. As for control lipoplex, Lipofectamine® 2000 complexes were prepared according to the manufacturer's instructions using optimum concentration. In order to prepare DOTAP/DOPE liposomes, a lipid film was formed by removing the chloroform solvent in DOTAP/DOPE mixture solution under nitrogen atmosphere. The lipid film is hydrated with NF-water to make the final concentration 10 mM DOTAP/DOPE. The DOTAP/DOPE liposome formulation was formed by mixing 250 μl of pDNA encoding for firefly luciferase and cystic fibrosis transmembrane conductance regulator (fLUC-CFTR pDNA) (150 μg) containing solution and 250 μl diluted DOTAP/DOPE solution (190 μl of 10 mM DOTAP/DOPE liposome and 60 μl NF-water). The mix solution was incubated at RT for 20 min prior to further use.
(§2) In vitro transfection: For the luciferase assay, cells were seeded at a density of 1.8×10^4/well (BEAS-2B) or 3.5×10^4/well (16HBE) in 96-well plates 24 h before transfection to reach 60-80% confluence. Following removal of growth medium, cells were rinsed with DPBS (Gibco, Germany). 170 μl of fresh serum-free OptiMEM (Gibco, Germany) were added per well, and subsequently 30 μl of IVT-mRNA or pDNA containing complexes prepared, as described above, corresponding to 400 ng IVT-mRNA or pDNA per well, were added in replicates of five. After 4 h of incubation at 37° C. in a humidified 5% CO2-containing atmosphere, the transfection medium was replaced with culture medium supplemented with 10% FBS and 1% (v/v) penicillin/streptomycin. Luciferase activity in 50 μl supernatants from transfected cells was assayed with Metridia luciferase substrate (coelenterazine, Invivogen, France) after 24 h using a FLUOstar microplate reader (BMG Labtech, Germany) and its activity is expressed in relative light units (RLU). In all cases each sample was measured on at least two other occasions to ensure the reproducibility of the data.
The same transfection procedure as described above was applied. Luciferase activity was expressed in RLU. The data are given as the mean±standard deviation (SD) of the mean (n>5) in FIGS. 12a to 12k.
(§3) The concentration of P704 in ternary complexes for treatment of BEAS-2B cells was 50 (w/w) and the concentration of P704 in ternary complexes for treatment of 16HBE cells was 63 (w/w). The N/P ratios of the compounds in ternary complexes were as follows:
BEAS-2B cells: Compound 0 (DL) at 30, compound 1 at 20, compounds 3 and 11 at 15, compounds 4 and 6 at 10, compounds 2 and 9 at 5, compounds 5, 7, 8 and 10 at 2.5.
The same transfection procedure as described above was applied. Luciferase activity was expressed in RLU. […]

[1] = Size and zeta potential measurements (Zetasizer Nano ZS) of P704 based binary and ternary complexes; format: physicochemical
Description: Size and zeta potential measurements: Particle size and zeta potential measurements of P704 based binary and ternary complexes were measured using a Zetasizer Nano ZS (Malvern Instruments Ltd.) at 25° C. Binary complexes were prepared in Tyrode's solution at a weight/weight ratio (P704/IVT-mRNA or pDNA) of 63:1. Ternary complexes were prepared in NF-water with P704 at a weight/weight ratio of 63:1 and the compound at N/P ratio of 10:1 (compound 0 (DL) and compound 8) or 5:1 (compound 4 and compound 9) using methods described above. The IVT-mRNA and pDNA concentration in both binary and ternary complexes was fixed at 10 μg/ml.
The results of physical characterizations (size and zeta potential) of P704 based binary and ternary complexes containing IVT-mRNA or pDNA are given in the following table: […]

16HBE cells [2] = assay: In vitro transfection, Metridia luciferase assay in 16HBE cells; format: cell-based, human
Description: as §1
as §2, with “data. […]” for “data.”
as §3
16HBE cells: Compound 0 (DL) at 20, compounds 1 and 11 at 15, compounds 2 and 3 at 10, compounds 4, 6, 8, and 9 at 5, compounds 5, 7, and 10 at 2.5.
The same transfection procedure as described above was applied.
The concentration of P704 in ternary complexes was 63 (w/w). The N/P ratio of the compounds in certain ternary complexes was as follows:
16HBE cells: Compound 1, 8, and 11 at 20; compound 0 (DL) and 3 at 10; compound 2 at 7.5; compounds 4, 6, 9, and 10 at 5, compounds 5 and 7 at 2.5. […]

16HBE cells [3] = assay: as above; format: cell-based, human; settings: day 2

| Substance | IVT-mRNA transfection efficiency of P704 ternary complex (in words) (BEAS-2B cells; MetLuc mRNA, P704 63 (w/w), optimum N/P, FIG. 17a) | pDNA transfection efficiency of P704 ternary complex (in words) (BEAS-2B cells; MetLuc pDNA, P704 50 (w/w), optimum N/P, FIG. 14a) | particle size of ternary complex compared with other counterparts [1] | IVT-mRNA transfection efficiency of P704 ternary complex (in words) (16HBE cells [2]; MetLuc mRNA, P704 63 (w/w), optimum N/P, FIG. 17b) | pDNA transfection efficiency of P704 ternary complex (in words) (16HBE cells [2]; MetLuc pDNA, P704 63 (w/w), optimum N/P, FIG. 14b) | pDNA expression relative to compound 3 containing ternary complex (BEAS-2B cells; MetLuc pDNA, FIG. 14a) | pDNA expression compared with compound 3 containing ternary complex (16HBE cells [3]) | pDNA expression compared with compound 3 containing ternary complex (16HBE cells [2]; other days than day 2) |
| --- | --- | --- | --- | --- | --- | --- | --- | --- |
| KETWWETWWTEWWTEW-KKKKRRRRRKKKK-GACSERSMNFCG (KETWWETWWTEWWTEWKKKKRRRRRKKKKGACSERSMNFCG) [compound 9] | more superior to other counterparts | highest transfection efficiency | slightly smaller | more superior to other counterparts | overwhelming signals | – | – | – |
| NH2-VKRKKKPKKRRRRKKWK(DL-lipoic acid)-CONH2 (H-VKRKKKPKKRRRRKKWK(Lipoyl(6ξ))-NH2; SMILES CC(C)[C@H](N)C(=O)N[C@@H](CCCCN)C(=O)N[C@@H](CCCNC(=N)N)C(=O)N[C@@H](CCCCN)C(=O)N[C@@H](CCCCN)C(=O)N[C@@H](CCCCN)C(=O)N1CCC[C@H]1C(=O)N[C@@H](CCCCN)C(=O)N[C@@H](CCCCN)C(=O)N[C@@H](CCCNC(=N)N)C(=O)N[C@@H](CCCNC(=N)N)C(=O)N[C@@H](CCCNC(=N)N)C(=O)N[C@@H](CCCNC(=N)N)C(=O)N[C@@H](CCCCN)C(=O)N[C@@H](CCCCN)C(=O)N[C@@H](Cc1c[nH]c2ccccc12)C(=O)N[C@@H](CCCCNC(=O)CCCCC1CCSS1)C(N)=O) [compound 0 (DL)] | – | – | – | – | – | ~5 times | similar | significantly higher |

Reference: US11077205B2, “Synthetic compound for improving efficiency of transfection” (Klinikum der Universität München, priority 2016, dated 2021)
